Laboratory results from US9066948B2, “Oxadiazolo[3,2-a]pyrimidines and thiadiazolo[3,2-a]pyrimidines” (THE UNITED STATES OF AMERICA AS REPRESENTED BY THE …, priority 2010, dated 2015).
Values joined by “and” are separate entries in the source; they are usually repeats but may differ in a detail not shown here. Equal values may be shown once. Read-outs that look alike come from different tables or passages of the source. Bridge positions count the residues as written; N and C are the ends. Square brackets hold non-standard residues; d marks the D form. Peptide text beside a SMILES is read from it. hArg = N=C(N)NCCCC[C@H](N)C(=O)O; Mpa = O=C(O)CCS

Legend:
[1] = target: T1, HEK293 cells stably expressing normal human αVβ3 (Homo sapiens, UniProt P05106+P06756); assay: αVβ3-mediated cell adhesion to vitronectin; type: cell-based; conditions: HEK293, n=4
T1 construct: expressed in transfected cells; host or cells: HEK293
Procedure: Washed platelets are prepared as per the primary screening assay, suspended in HBMT containing 1 mM MgCl2 (platelet adhesion to collagen) or 2 mM CaCl2/1 mM MgCl2 (platelet adhesion to fibrinogen) and adjusted to a count of 250×10^9/L. HEK293 cells stably expressing normal human αVβ3 or normal human αIIbβ3 are suspended in HBMT containing either 1 mM MgCl2 (HEK293 cells expressing αVβ3 for adhesion to vitronectin) or 2 mM CaCl2/1 mM MgCl2 (HEK293 cells expressing αIIbβ3 for adhesion to fibrinogen); the cell counts are adjusted to 10^6/mL. Polystyrene 96-well microtiter plates (Nunc) are coated with either fibrinogen (50 μg/mL), vitronectin (5 μg/mL), or collagen (33 μg/mL, rat tail type 1; Becton Dickinson) for 1 hour, and blocked with HBMT for at least 1 hour. Platelets and cells are treated with the compound of Example 27 of the current invention or 2-ethyl-7-(piperazin-1-yl)-5H-[1,3,4]thiadiazolo-[3,2-a]pyrimidin-5-one of U.S. Ser. No. 12/514,286 in the presence or absence of anti-α2β1 mAb 6F1, anti-αIIbβ3 mAb 10E5, anti-αIIbβ3 mAb 10E5+αVβ3 mAb 7E3, αVβ3-specific mAb LM609, or anti-αVβ3+αIIbβ3 mAb 7E3, for 15 minutes at 37° C. before being added to the microtiter wells. After adhering for 1 hour at either 22° C. (platelets) or 37° C. (cells), nonadherent platelets or cells are removed by washing 3 times with HBMT containing the same ion composition as the buffer used for adhesion. […] In other experiments, 8-chambered glass coverslips (Nunc) are coated with collagen (33 μg/mL) for 1 hour at 22° C. Washed platelets are allowed to adhere for 1 hour at 22° C. and the coverslips are stained with the Alexa-488-conjugated β3-specific mAb 7H2. Adherent platelets are imaged using a Zeiss LSM-510 confocal system with Axiovert 200 microscope (Carl Zeiss, Heidelberg, Germany) using a Plan-Apochromat 100/1.4 NA oil DIC objective.

[2] = tested on: platelets; assay: Platelet aggregation assay: ADP-induced, platelet-rich plasma; type: cell-based, human; conditions: citrate anticoagulant, tested twice, read-out: IC50, ADP-induced platelet aggregation of citrated PRP
Procedure: […] After 30 seconds in the aggregometer (Kowa AF-10E; Tokyo, Japan) at 37° C. with stirring, ADP (5-20 μM) is added to induce aggregation and the light transmittance is measured for 8 minutes. The initial slopes of aggregation in the presence of different concentrations of the Compound being tested are used to generate an IC50.

[3] = target: T2, purified αIIbβ3 (Homo sapiens, UniProt P05106+P08514); assay: Extension of purified αIIbβ3 in nanodiscs by negative staining electron microscopy; conditions: for shift of nanodisc-integrin length (NIL) frequency distribution: 1 hour at room temperature, at highest doses majority of NIL values 18 to 23 nm
T2 construct: αIIbβ3 is purified from outdated single donor platelet concentrates obtained from the New York Blood Center; tissue New York Blood Center; host or cells: outdated single donor platelet concentrates
Procedure: In brief, the His-tagged membrane scaffold protein is prepared as a recombinant protein in E. coli and purified by Nickel affinity chromatography and anion exchange chromatography. Final assembly consists of solubilizing an equimolar mixture of 1,2-dimyristoyl-sn-glycero-3-phosphocholine and 1,2-dimyristoyl-sn-glycero-3-phospho-(1′-rac-glycerol) in octylglucoside and cholate and then adding the purified αIIbβ3. The detergents are removed with macroporous polymeric beads (Bio-Bead SM-2) and then the αIIbβ3 nanodiscs are separated from the empty nanodiscs by gel filtration.
αIIbβ3 nanodiscs are treated with eptifibatide, tirofiban, 2-ethyl-7-(piperazin-1-yl)-5H-[1,3,4]thiadiazolo-[3,2-a]pyrimidin-5-one of U.S. Ser. No. 12/514,286, or the compound of Example 27 of the current invention for 1 hour at room temperature at concentrations up to 100 μM for 2-ethyl-7-(piperazin-1-yl)-5H-[1,3,4]thiadiazolo-[3,2-a]pyrimidin-5-one (a compound claimed in U.S. Ser. No. 12/514,286) and at concentrations up to 10 μM for 2-amino-N-(3-(5-oxo-7-(piperazin-1-yl)-5H-[1,3,4]thiadiazolo[3,2-a]pyrimidin-2-yl)phenyl)acetamide of Example 27. Samples are loaded onto carbon-coated copper grids that are glow-discharged by a carbon coating unit (Edwards; Crowley, UK), and then stained with 2% uranyl acetate, followed by drying. Imaging of αIIbβ3 nanodiscs is performed using a JOEL JEM 100CX transmission electron microscope (Jeol Ltd; Tokyo, Japan) at 80 kV and magnifications of 33,000× and 50,000×. Individual nanodiscs containing αIIbβ3 are manually selected for analysis using Image J (NIH, Bethesda, Md.). The distance from the bottom of the nanodisc to the height of the αIIbβ3 complex (nanodisc-integrin length; NIL) is measured as an indicator of integrin extension. The frequency distribution of NIL values is then analyzed for untreated αIIbβ3 nanodiscs and αIIbβ3 nanodiscs in the presence of different compounds.

[4] = target: T3, HEK293 cells stably expressing normal human αIIbβ3 (Homo sapiens, UniProt P05106+P08514); assay: αIIbβ3-mediated cell adhesion to fibrinogen; type: cell-based; conditions: same concentration as αVβ3 experiments (100 μM), n=4
T3 construct: expressed in transfected cells; host or cells: HEK293
Procedure: Washed platelets are prepared as per the primary screening assay, suspended in HBMT containing 1 mM MgCl2 (platelet adhesion to collagen) or 2 mM CaCl2/1 mM MgCl2 (platelet adhesion to fibrinogen) and adjusted to a count of 250×10^9/L. HEK293 cells stably expressing normal human αVβ3 or normal human αIIbβ3 are suspended in HBMT containing either 1 mM MgCl2 (HEK293 cells expressing αVβ3 for adhesion to vitronectin) or 2 mM CaCl2/1 mM MgCl2 (HEK293 cells expressing αIIbβ3 for adhesion to fibrinogen); the cell counts are adjusted to 10^6/mL. Polystyrene 96-well microtiter plates (Nunc) are coated with either fibrinogen (50 μg/mL), vitronectin (5 μg/mL), or collagen (33 μg/mL, rat tail type 1; Becton Dickinson) for 1 hour, and blocked with HBMT for at least 1 hour. Platelets and cells are treated with the compound of Example 27 of the current invention or 2-ethyl-7-(piperazin-1-yl)-5H-[1,3,4]thiadiazolo-[3,2-a]pyrimidin-5-one of U.S. Ser. No. 12/514,286 in the presence or absence of anti-α2β1 mAb 6F1, anti-αIIbβ3 mAb 10E5, anti-αIIbβ3 mAb 10E5+αVβ3 mAb 7E3, αVβ3-specific mAb LM609, or anti-αVβ3+αIIbβ3 mAb 7E3, for 15 minutes at 37° C. before being added to the microtiter wells. After adhering for 1 hour at either 22° C. (platelets) or 37° C. […]

[5] = tested on: platelets; assay: Platelet adhesion assay: calcein-labeled platelets on fibrinogen-coated wells; type: cell-based; conditions: Homo sapiens, mean±SD
Procedure: Thirty microliters of human fibrinogen (50 μg/mL) in Tris/saline (100 mM NaCl, 50 mM Tris/HCl, pH 7.4; American Diagnostica, Stamford, Conn.) are added to black, clear-bottom, untreated polystyrene, nonsterile 384-well microtiter plate wells (Corning no. 3711; Acton, Mass.). […] An additional wash is performed using HBMT with 1 mM MgCl2 and 2 mM CaCl2. Calcein-labeled platelets (final concentration 1×10^11/L) are treated with selected Compounds of the Invention (final concentration of 100 μM, 30 μM, 10 μM or 1 μM) at 22° C. for 20 minutes. Thirty microliters of platelets are then added to the wells. After 1 hour of adhesion, wells are washed 3 times with HBMT-1 mM MgCl2/2 mM CaCl2 and the plates are read by a fluorescent microtiter plate reader (Envision; Perkin Elmer) to detect calcein fluorescence (490 nm excitation and 515 nm emission). Negative controls consist of wells containing platelets without compounds of the invention.

[6] = target: T4, αIIbβ3 (Homo sapiens, UniProt P05106+P08514); assay: Induction of ligand-induced binding site (LIBS) epitopes, flow cytometry of washed platelets; type: cell-based; conditions: eptifibatide 10 μM = 100%, Example 27 at 100 μM
T4 construct: Washed platelets are prepared in HBMT containing 2 mM CaCl2/1 mM MgCl2; endogenous in cells; host or cells: washed platelets
Procedure: Washed platelets are prepared in HBMT containing 2 mM CaCl2/1 mM MgCl2. […] Fluorescently labeled monoclonal antibodies (PMI-1, LIBS-1, AP5, or 10E5; Alexa-488 conjugated; Invitrogen) are then added (20 μL, final concentration: 5 μg/mL) and incubated for 30 minutes at 22° C. in the dark, after which samples are diluted 1:10 in HBMT with CaCl2/MgCl2 for analysis by flow cytometry (FACSCalibur; Becton Dickinson, Franklin Lakes, N.J.). Antibody binding is reported as the geometric mean fluorescence intensity; nonspecific binding is determined by adding a 50-fold excess of unlabeled antibody before adding the labeled antibody. The net normalized fluorescence intensity in the presence of eptifibatide (10 μM, 30 min incubation at 22° C.) is assigned the value of 100%

[7] = tested on: washed platelets; assay: Effect of Mg2+ on washed platelet aggregation induced by thrombin receptor activating peptide (SFLLRN); type: cell-based, human; conditions: compound at 100 μM; SFLLRN 10 μM
Procedure: Washed platelets are resuspended in buffer containing fibrinogen (200 μg/ml) and 1 mM […] in combination with either 1 mM or 20 mM Mg^2+. Aggregation is induced by adding a thrombin receptor activating peptide (SFLLRN) at 10 μM.

[8] = tested on: washed platelets; assay: Effect of Mg2+ concentration on platelet adhesion to fibrinogen; type: cell-based, human; conditions: 1, 20, 50 mM Mg2+
Procedure: Washed platelets in buffers containing 1 mM Ca^2+ plus 1 mM, 20 mM, or 50 mM Mg^2+ are added to wells pre-coated with fibrinogen (50 μg/ml) for 60 min at 22° C. After washing, adherent platelets are detected by acid phosphatase activity. Results are expressed as mean±SD (n=3 for the compound of Example 27 of the current invention and 2-ethyl-7-(piperazin-1-yl)-5H-[1,3,4]thiadiazolo-[3,2-a]pyrimidin-5-one (a compound disclosed and claimed in U.S. Ser. No. 12/514,286); n=2 for tirofiban).

T4 sequence (P08514 32-887 limits assumed): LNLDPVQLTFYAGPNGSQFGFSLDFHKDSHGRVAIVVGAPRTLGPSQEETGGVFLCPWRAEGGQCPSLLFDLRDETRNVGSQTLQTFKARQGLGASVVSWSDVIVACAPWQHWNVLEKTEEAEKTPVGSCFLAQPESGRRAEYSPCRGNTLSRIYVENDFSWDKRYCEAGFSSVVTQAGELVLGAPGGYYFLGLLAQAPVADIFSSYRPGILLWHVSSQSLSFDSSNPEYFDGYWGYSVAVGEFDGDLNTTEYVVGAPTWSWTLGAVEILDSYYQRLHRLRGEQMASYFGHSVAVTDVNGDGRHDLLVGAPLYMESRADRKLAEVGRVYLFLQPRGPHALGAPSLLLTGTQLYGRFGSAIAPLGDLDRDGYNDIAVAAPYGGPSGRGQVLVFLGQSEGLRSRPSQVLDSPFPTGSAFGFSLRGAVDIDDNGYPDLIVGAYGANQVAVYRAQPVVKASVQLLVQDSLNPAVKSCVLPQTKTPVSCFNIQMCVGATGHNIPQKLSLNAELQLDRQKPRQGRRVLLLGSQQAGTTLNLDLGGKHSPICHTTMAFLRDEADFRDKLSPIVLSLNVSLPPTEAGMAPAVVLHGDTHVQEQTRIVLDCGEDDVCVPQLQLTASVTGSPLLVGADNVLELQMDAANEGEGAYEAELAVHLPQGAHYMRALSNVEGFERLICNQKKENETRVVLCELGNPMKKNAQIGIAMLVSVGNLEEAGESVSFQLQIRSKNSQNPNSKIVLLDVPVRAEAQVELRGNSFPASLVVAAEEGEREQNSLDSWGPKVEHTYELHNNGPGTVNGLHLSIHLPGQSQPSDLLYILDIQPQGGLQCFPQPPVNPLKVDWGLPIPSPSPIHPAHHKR
T4 sequence (P08514 891-1039 partner limits assumed): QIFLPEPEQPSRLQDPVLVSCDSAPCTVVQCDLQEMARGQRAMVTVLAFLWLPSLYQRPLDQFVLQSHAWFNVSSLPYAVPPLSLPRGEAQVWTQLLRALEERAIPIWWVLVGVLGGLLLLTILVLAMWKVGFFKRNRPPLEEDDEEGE
T4 sequence (P05106 27-788): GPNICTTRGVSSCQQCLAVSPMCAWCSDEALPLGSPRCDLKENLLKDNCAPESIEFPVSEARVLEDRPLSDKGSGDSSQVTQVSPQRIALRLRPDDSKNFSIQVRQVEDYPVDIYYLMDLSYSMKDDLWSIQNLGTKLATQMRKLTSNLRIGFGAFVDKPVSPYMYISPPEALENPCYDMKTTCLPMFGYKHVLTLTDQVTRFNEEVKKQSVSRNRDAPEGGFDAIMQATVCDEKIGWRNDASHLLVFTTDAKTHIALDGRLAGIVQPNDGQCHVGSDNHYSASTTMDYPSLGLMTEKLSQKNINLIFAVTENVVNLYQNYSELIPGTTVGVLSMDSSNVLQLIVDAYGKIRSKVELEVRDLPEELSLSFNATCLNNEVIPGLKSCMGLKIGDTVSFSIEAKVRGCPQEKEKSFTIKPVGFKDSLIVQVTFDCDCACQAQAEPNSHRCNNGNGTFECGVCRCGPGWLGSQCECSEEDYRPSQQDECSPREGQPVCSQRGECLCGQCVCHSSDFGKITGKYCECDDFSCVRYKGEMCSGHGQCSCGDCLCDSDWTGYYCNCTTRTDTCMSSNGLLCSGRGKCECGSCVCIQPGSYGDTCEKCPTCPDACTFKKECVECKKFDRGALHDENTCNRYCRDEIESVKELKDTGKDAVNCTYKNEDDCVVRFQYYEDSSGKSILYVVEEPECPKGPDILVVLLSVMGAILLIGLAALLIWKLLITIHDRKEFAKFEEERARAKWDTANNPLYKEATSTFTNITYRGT
T2 sequence (P08514 32-887 limits assumed): as the sequence (P08514 32-887 limits assumed) above
T2 sequence (P08514 891-1039 partner limits assumed): as the sequence (P08514 891-1039 partner limits assumed) above
T2 sequence (P05106 27-788): as the sequence (P05106 27-788) above
T1 sequence (P06756 31-889 limits assumed): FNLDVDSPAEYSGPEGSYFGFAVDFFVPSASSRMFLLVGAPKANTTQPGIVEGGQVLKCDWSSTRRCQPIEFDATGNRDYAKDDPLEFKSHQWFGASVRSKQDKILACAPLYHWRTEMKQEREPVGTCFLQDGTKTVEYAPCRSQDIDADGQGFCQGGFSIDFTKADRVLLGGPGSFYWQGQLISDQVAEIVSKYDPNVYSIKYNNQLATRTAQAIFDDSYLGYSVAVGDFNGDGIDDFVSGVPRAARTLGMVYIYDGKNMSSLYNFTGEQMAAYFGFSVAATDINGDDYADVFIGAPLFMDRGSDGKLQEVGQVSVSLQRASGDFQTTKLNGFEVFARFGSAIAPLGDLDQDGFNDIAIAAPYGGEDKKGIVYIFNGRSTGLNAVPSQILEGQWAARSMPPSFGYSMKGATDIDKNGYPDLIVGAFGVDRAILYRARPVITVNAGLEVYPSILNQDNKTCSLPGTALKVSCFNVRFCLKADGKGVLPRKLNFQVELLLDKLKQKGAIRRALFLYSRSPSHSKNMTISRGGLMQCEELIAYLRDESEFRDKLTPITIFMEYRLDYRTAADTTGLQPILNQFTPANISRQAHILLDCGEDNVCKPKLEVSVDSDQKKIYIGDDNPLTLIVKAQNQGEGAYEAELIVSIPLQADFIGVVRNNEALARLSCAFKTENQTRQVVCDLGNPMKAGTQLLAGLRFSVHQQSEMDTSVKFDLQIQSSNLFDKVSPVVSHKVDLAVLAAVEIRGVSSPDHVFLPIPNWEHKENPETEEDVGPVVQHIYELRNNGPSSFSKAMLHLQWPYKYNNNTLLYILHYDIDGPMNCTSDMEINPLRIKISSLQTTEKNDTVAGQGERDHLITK
T1 sequence (P06756 891-1048 partner limits assumed): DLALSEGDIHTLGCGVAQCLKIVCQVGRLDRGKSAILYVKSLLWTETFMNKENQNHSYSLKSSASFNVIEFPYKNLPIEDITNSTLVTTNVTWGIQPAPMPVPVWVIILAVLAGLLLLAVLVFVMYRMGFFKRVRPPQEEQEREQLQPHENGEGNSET
T1 sequence (P05106 27-788): as the sequence (P05106 27-788) above
T3 sequence (P08514 32-887 limits assumed): as the sequence (P08514 32-887 limits assumed) above
T3 sequence (P08514 891-1039 partner limits assumed): as the sequence (P08514 891-1039 partner limits assumed) above
T3 sequence (P05106 27-788): as the sequence (P05106 27-788) above

## NCC(=O)Nc1cccc(-c2nn3c(=O)cc(N4CCNCC4)nc3s2)c1 [2-amino-N-(3-(5-oxo-7-(piperazin-1-yl)-5H-[1,3,4]thiadiazolo[3,2-a]pyrimidin-2-yl)phenyl)acetamide]
[1]; 10 μM
  inhibition at 10 µM: 6 ± 15%

## CCc1nn2c(=O)cc(N3CCNCC3)nc2s1 [Example 1, 2-ethyl-7-(piperazin-1-yl)-5H-[1,3,4]thiadiazolo[3,2-a]pyrimidin-5-one]
[2]; Homo sapiens, Platelet
  IC50: 12 µM
[2]
  IC50: 18 µM
[3]; concentrations up to 100 μM
  shift of nanodisc-integrin length (NIL) values / receptor extension: do not induce receptor extension
[4]
  inhibition at 100 µM: 55 ± 5%
[5]
  inhibition at 10 µM: 22 ± 8%
[5]; 30 μM, 5 separate experiments
  inhibition at 30 µM: 38 ± 10%
[5]; 100 μM, 5 separate experiments
  inhibition at 100 µM: 70 ± 15%
[6]
  AP5 binding, % of the amount in the presence of eptifibatide: 10±4% and 10%
  LIBS1 binding after 30 min, % of the amount in the presence of eptifibatide: 18±2%
  PMI-1 binding, % of the amount bound by platelets treated with eptifibatide: 73±9%
[7]
  effect of Mg2+ on the inhibition of SFLLRN-induced platelet aggregation: much less evident
[1]; 100 μM
  inhibition at 100 µM: 5 ± 7%

## N=C(N)NCCCC[C@@H]1NC(=O)CCSSC[C@@H](C(N)=O)NC(=O)[C@@H]2CCCN2C(=O)[C@H](Cc2c[nH]c3ccccc23)NC(=O)[C@H](CC(=O)O)NC(=O)CNC1=O [eptifibatide, reference compound] ([Mpa][hArg]GDWPC-NH2; disulfide 1-7)
[3]
  shift of nanodisc-integrin length (NIL) frequency distribution: shift the distribution in a dose-dependent manner

## CCCCS(=O)(=O)N[C@@H](Cc1ccc(OCCCCC2CCNCC2)cc1)C(=O)O [tirofiban, reference compound]
[3]
  shift of nanodisc-integrin length (NIL) frequency distribution: shift the distribution in a dose-dependent manner
[5]
  inhibition at 10 µM: 87 ± 9%
[8]
  increase in IC50 at higher Mg2+ concentrations comparable to that of Example 27: nor tirofiban shows a comparable increase in IC50
